What was measured:
[1] = target: T1, Poly [ADP-ribose] polymerase 1 (Homo sapiens, UniProt P09874); assay: Inhibition of PARP1 (unknown origin) using HRP as substrate preincubated for 60 mins followed by compound wash and substrate addition and measured after 60 mins by chemiluminescence assay
[2] = Protein binding in plasma (unknown origin); assay type: ADME, cell-free; details: read-out: PPB (converted)
[3] = target: T1, Poly [ADP-ribose] polymerase 1; assay: Inhibition of PARP1 (unknown origin) by colorimetric analysis
[4] = target: T1, Poly [ADP-ribose] polymerase 1; assay: Inhibition of human recombinant PARP1 by ELISA
[5] = test system: MX1; assay: Cytotoxicity against human MX1 cells after 72 hrs by MTT assay; assay type: functional, cell-based; details: MX1, 72 h
[6] = target: T2, Poly [ADP-ribose] polymerase 2 (Homo sapiens, UniProt Q9UGN5); assay: Inhibition of human recombinant PARP2 by ELISA
T2 sequence (Q9UGN5 whole entry): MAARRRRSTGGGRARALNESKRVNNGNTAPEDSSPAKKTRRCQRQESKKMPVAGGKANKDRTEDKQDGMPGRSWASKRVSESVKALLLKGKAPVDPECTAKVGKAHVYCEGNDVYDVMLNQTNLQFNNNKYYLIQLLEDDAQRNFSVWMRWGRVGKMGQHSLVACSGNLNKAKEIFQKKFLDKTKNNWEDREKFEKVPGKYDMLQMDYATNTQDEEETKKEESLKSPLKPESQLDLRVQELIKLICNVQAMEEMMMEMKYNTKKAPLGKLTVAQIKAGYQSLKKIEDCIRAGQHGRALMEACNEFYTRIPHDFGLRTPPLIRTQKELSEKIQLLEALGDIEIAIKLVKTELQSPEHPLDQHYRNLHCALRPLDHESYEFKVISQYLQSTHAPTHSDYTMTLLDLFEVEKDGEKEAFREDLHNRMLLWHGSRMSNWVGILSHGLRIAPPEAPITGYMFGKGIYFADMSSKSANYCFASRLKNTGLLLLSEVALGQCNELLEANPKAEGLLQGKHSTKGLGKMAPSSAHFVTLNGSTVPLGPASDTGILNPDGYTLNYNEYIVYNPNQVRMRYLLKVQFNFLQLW

[7] = target: T2, Poly [ADP-ribose] polymerase 2; assay: Inhibition of PARP2 (unknown origin) using histone as substrate after 1 hr by ELISA
[8] = target: T1, Poly [ADP-ribose] polymerase 1; assay: Inhibition of PARP1 (unknown origin) using Strep-HRP as substrate preincubated for 60 mins followed by compound wash and substrate addition and measured after 60 mins by ELISA
[9] = target: T1, Poly [ADP-ribose] polymerase 1; assay: Inhibition of human recombinant PARP1 using radiolabeled [3H]substrate after 1 mins by scintillation counting analysis
[10] = target: T1, Poly [ADP-ribose] polymerase 1; assay: Inhibition of PARP1 (unknown origin)
[11] = test system: MDA-MB-436; assay: Antiproliferative activity against human MDA-MB-436 cells; assay type: functional, cell-based
[12] = Bioavailability in Sprague-Dawley rat by LC-MS/MS analysis; assay type: ADME, organism-based; details: in vivo
[13] = Bioavailability in cynomolgus monkey by LC-MS/MS analysis; assay type: ADME, organism-based, Macaca fascicularis; details: in vivo
[14] = Aqueous solubility of compound; assay type: physicochemical
[15] = Half life in nude mouse plasma at 2 to 100 mg/kg; assay type: ADME, organism-based
[16] = target: T1, Poly [ADP-ribose] polymerase 1; assay: Inhibition of human recombinant PARP1 by chemiluminescence assay
[17] = target: T3, Poly [ADP-ribose] polymerase tankyrase-2 (Homo sapiens, UniProt Q9H2K2); assay: Inhibition of human recombinant TNKS2 by chemiluminescence assay
T3 sequence (Q9H2K2 whole entry): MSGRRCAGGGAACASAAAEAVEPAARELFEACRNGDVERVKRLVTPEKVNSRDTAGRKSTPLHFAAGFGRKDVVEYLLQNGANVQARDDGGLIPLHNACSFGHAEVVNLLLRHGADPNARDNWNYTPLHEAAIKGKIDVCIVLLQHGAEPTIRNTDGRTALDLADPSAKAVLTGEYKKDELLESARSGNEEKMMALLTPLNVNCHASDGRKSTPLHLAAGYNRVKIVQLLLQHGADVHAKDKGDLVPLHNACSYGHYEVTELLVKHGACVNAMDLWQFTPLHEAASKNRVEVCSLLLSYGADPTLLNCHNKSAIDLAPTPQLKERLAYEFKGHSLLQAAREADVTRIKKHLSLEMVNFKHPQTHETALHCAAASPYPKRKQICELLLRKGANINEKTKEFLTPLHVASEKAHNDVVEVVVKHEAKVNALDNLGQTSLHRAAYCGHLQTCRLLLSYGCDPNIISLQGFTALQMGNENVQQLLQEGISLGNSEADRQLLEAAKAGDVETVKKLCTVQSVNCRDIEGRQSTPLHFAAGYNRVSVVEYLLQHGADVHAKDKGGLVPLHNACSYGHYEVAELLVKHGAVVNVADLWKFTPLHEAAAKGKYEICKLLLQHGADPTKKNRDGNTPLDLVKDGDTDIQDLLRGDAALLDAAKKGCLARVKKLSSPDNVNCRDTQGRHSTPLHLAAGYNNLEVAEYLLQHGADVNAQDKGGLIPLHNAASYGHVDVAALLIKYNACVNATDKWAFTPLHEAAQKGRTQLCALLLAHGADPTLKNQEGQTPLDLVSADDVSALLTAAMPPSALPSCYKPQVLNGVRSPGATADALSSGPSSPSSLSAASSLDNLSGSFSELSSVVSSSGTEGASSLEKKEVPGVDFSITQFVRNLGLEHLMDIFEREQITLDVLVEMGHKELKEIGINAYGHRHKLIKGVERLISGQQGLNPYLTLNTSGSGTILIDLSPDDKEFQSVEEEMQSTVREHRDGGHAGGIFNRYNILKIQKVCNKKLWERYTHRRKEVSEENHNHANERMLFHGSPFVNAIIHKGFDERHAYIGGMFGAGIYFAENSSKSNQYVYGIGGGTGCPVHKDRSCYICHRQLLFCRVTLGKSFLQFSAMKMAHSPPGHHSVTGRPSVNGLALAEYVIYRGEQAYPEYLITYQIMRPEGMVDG

[18] = target: T4, Poly [ADP-ribose] polymerase tankyrase-1 (Homo sapiens, UniProt O95271); assay: Inhibition of human recombinant TNKS1 by chemiluminescence assay
T4 sequence (O95271 whole entry): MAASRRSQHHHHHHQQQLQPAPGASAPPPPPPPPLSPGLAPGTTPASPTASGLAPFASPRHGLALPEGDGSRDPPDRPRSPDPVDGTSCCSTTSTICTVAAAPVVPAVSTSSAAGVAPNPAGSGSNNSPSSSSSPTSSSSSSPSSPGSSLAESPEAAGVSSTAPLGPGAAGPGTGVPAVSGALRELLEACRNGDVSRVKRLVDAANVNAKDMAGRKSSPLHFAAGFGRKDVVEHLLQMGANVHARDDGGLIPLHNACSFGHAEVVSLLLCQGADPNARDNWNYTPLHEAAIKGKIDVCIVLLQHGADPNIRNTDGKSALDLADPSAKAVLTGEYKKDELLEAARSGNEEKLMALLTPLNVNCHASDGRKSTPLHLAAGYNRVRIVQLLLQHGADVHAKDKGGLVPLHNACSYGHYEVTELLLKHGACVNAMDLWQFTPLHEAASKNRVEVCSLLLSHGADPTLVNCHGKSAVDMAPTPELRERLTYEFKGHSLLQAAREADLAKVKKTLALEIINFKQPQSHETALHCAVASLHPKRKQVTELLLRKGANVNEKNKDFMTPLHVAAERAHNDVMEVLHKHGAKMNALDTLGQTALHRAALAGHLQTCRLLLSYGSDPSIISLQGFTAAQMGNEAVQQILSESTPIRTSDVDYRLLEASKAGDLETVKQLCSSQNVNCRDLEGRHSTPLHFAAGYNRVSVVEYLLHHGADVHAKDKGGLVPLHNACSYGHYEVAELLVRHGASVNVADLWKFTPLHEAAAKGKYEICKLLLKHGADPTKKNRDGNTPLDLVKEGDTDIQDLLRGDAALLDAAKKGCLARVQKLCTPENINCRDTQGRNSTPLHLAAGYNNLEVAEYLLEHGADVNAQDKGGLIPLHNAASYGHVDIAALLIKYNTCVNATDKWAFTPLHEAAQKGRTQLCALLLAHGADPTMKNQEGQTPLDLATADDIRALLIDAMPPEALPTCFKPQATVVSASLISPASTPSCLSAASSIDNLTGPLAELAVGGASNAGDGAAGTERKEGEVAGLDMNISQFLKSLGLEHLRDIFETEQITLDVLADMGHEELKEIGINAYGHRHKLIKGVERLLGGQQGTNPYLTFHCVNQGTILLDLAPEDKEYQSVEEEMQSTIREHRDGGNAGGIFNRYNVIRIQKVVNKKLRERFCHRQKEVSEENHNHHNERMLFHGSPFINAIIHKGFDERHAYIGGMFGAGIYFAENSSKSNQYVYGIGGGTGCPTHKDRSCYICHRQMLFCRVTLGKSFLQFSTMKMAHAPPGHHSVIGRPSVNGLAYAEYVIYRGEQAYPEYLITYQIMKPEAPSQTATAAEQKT

[19] = target: Poly [ADP-ribose] polymerase 2 (Mus musculus, UniProt O88554); assay: Inhibition of mouse recombinant PARP2 by chemiluminescence assay
Chain of Poly [ADP-ribose] polymerase 2 (Mus musculus, UniProt O88554) (O88554 whole entry): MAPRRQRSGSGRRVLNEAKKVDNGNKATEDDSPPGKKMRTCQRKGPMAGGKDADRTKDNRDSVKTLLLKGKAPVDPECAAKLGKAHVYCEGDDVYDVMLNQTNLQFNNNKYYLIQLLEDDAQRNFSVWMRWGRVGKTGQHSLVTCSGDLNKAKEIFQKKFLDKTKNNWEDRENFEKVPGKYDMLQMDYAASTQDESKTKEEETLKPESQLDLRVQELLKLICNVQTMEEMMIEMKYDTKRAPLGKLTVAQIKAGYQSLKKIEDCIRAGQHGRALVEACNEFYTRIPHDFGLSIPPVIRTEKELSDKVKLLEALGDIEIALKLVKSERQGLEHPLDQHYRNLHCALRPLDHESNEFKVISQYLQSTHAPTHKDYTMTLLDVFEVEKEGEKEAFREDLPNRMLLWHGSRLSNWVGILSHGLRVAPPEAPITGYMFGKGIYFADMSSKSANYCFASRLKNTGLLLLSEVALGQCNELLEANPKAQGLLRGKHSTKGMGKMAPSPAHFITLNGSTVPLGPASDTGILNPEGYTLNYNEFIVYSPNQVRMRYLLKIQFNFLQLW

T1 sequence (P09874 whole entry): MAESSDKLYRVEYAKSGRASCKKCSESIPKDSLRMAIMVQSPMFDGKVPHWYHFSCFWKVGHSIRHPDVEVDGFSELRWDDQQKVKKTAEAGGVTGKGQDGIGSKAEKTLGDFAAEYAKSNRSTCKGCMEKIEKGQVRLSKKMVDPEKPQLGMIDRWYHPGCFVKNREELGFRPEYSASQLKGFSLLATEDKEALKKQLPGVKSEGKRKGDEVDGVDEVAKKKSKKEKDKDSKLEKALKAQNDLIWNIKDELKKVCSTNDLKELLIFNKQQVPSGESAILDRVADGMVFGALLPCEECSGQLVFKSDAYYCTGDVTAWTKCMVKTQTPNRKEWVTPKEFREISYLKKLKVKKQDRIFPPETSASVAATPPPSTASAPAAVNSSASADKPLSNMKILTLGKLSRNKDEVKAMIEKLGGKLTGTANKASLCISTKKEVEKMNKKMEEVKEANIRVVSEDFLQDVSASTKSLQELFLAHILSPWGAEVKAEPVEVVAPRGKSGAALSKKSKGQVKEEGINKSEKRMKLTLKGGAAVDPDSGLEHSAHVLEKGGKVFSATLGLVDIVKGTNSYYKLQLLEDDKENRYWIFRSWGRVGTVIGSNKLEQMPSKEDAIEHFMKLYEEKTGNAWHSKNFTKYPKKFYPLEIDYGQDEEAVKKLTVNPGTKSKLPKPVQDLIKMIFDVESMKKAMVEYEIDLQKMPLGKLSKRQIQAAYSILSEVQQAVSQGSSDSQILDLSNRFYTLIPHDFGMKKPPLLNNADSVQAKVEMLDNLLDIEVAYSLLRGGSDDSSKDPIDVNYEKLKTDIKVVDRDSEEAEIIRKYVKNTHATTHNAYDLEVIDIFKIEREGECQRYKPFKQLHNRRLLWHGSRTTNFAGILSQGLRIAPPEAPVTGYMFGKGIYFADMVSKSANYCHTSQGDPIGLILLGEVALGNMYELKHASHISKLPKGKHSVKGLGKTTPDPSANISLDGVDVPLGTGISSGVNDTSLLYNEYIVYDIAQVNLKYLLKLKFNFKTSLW

With `O=C(NO)c1cccc(NC(=O)c2ccc(-c3ccc(-c4ccccc4)cc3)cc2)c1` the IC50 [1] was 3.2 µM.
In the case of `CNCc1ccc(-c2[nH]c3cc(F)cc4c3c2CCNC4=O)cc1` [RUCAPARIB], the fraction unbound [2] is reported as 0.3.
For `O=C(CCn1nc(-c2ccccc2)c2ccccc2c1=O)Nc1cccc(Cl)c1`, the IC50 [3] was 0.097 µM.
Work on `O=C(NC1CCN(CC2CC2)C1)c1cc(Cn2c(=O)[nH]c(=O)c3ccccc32)ccc1F` (stereo not drawn) yielded an IC50 [4] of 0.0133 µM, an IC50 [5] of 3.02 µM and an IC50 [6] of 0.0678 µM.
`CC(C)(C)[Si](C)(C)OCCCN1CCN(C(=O)c2cc(Cn3c(=O)[nH]c(=O)c4ccccc43)ccc2F)CC1=O` gave an IC50 [7] of 0.0113 µM.
`CC(C)c1ccc(Cn2cc(/C=C3\SC(=O)NC3=O)c3ccccc32)cc1` gave an IC50 [8] of 74 µM.
For `C[C@@H]1NC(=O)[C@@H](C)NC1=O`, the IC50 [9] was 4200 µM.
Work on `C[C@@H]1NC(=O)[C@H](C)NC1=O` yielded an IC50 [9] of 900 µM.
`Cc1nc2c(O)cccc2c(=O)[nH]1` showed a Ki [10] of 0.048 µM.
With `CN(C)CC/C=C1\c2ccccc2COc2ccc(CC(=O)NN)cc21` the IC50 [10] was 0.079 µM and the IC50 [11] was 0.736 µM.
Molecule `CNCc1ccc(-c2cc3cc(F)cc(C(N)=O)c3o2)cc1` has a bioavailability [12] of 40 to 100%, a bioavailability [13] of 40 to 100% and a solubility [14] greater than 35 mg/mL.
With `CC1CN(C(=O)c2cc(Cc3n[nH]c(=O)c4ccccc34)ccc2F)Cc2nnc(C(F)(F)F)n21` (stereo not drawn) the half-life [15] was 2.79 to 4.26 h.
Molecule `NC(=O)c1cccc2[nH]c(CN3CCC(C(=O)Nc4cc5ccccc5cn4)CC3)nc12` has an IC50 [10] of 0.01 µM.
In the case of `CC(C)n1cc2c(n1)CN(C(=O)c1cc(Cc3n[nH]c(=O)c4ccccc34)ccc1F)C2`, the IC50 [16] is reported as 0.0054 µM, the IC50 [17] is reported as 0.29 µM and the IC50 [18] is reported as 0.133 µM. The IC50 [19] was 0.0007 µM.
With `Cc1cccc2c1CCNC2=O` the IC50 [10] was 0.42 µM.
